Where “and” joins values, the source holds several entries; their conditions need not be identical. Equal entries are not always repeated.
Legend:
NTCP = biological target: T1, NTCP (Homo sapiens, UniProt Q14973); assay: Uptake transporter inhibition assay, NTCP; format: cell-based; details: for Accumulation (counts per minute; CPM) HEK293-NTCP / Accumulation (counts per minute; CPM) HEK293FT-MOCK: NTCP
T1 construct: expressed in transfected cells; host or cells: HEK cells
T1 sequence (Q14973 1-349): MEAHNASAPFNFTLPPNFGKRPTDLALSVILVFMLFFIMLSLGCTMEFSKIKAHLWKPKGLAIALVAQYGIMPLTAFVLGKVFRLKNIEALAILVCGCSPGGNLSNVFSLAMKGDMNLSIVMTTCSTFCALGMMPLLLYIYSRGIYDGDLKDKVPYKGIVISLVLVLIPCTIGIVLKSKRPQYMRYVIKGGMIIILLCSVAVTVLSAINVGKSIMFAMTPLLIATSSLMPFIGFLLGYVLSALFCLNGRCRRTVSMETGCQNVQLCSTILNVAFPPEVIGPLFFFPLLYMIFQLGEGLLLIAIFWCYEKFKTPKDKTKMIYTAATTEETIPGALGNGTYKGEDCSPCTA
Protocol: For the uptake transporter inhibition assay, cells were washed twice with 100 μL of the appropriate buffer (HK, pH 7.4) for OATP1B1, followed by HBSS (pH 7.4) for (NTCP, OAT1, OAT2v1, OATP1A2, and OATP1B3). Uptake experiments were carried out at 37 ± 1°C in 50 μL of the respective buffer containing the probe substrate and the compound or solvent.

OATP1B1 = biological target: T2, OATP1B1 (Homo sapiens, UniProt Q9Y6L6); assay: Uptake transporter inhibition assay, OATP1B1
T2 sequence (Q9Y6L6 1-691): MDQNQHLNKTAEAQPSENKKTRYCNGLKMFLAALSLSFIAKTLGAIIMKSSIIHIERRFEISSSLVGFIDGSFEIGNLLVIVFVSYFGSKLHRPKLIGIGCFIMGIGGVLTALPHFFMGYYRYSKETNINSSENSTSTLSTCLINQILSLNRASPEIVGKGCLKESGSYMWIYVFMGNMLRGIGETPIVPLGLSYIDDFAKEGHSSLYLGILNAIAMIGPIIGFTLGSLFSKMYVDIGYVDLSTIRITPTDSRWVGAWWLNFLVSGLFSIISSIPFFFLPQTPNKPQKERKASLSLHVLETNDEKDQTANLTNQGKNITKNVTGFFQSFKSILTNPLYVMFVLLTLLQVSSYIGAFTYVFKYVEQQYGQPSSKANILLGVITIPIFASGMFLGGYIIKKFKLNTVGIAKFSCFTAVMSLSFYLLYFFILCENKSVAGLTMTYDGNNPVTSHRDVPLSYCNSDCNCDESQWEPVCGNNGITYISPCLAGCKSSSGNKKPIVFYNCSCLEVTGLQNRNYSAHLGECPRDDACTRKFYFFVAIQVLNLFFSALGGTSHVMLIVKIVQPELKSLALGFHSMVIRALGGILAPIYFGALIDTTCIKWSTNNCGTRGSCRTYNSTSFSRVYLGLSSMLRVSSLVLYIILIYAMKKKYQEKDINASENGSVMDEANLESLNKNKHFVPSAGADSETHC
Protocol: For the uptake transporter inhibition assay, cells were washed twice with 100 μL of the appropriate buffer (HK, pH 7.4) for OATP1B1, followed by HBSS (pH 7.4) for (NTCP, OAT1, OAT2v1, OATP1A2, and OATP1B3). Uptake experiments were carried out at 37 ± 1°C in 50 μL of the respective buffer containing the probe substrate and the compound or solvent. […] After the experiment, cells were washed twice with 100 μL of cold appropriate buffer and lysed with 50 μL of 0.1 M NaOH. Radiolabeled probe substrate transport was determined by measuring an aliquot (35 μL) from each well for liquid scintillation counting.

MRP3 = MRP3 (Homo sapiens, UniProt O15438); assay: Vesicular transport inhibition assay, MRP3; details: for Accumulation (counts per minute; CPM) with AMP / Accumulation (counts per minute; CPM) with ATP: MRP3;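 also: membrane vesicles with radiolabelled probe substrate and 2 mM glutathione, 4 mM ATP versus AMP background control, vesicle-trapped substrate quantified by liquid scintillation counting after filtration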;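 as to Accumulation (counts per minute; CPM) with AMP: ATP 4 mM vs AMP background separates transporter uptake from diffusion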;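 as to Accumulation (counts per minute; CPM) with ATP: ATP 4 mM vs AMP background separates transporter uptake from diffusion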
Protocol: In the vesicular transport inhibition assay (for BSEP, MRP) compounds were incubated with membrane vesicle preparations and the probe substrate. Incubations were carried out in the presence of 4 mM ATP or AMP to distinguish between transporter-mediated uptake and passive diffusion into the vesicles. For MRP2 and MRP3, reactions were carried out in the presence of 2 mM glutathione. Compounds were added to the reaction mixture in 0.75 μL of solvent (1% of the final incubation volume). […] Reactions were initiated by the addition of 25 μL of 12 mM MgATP (or 12 mM AMP in assay buffer as a background control) and preincubated separately. Reactions were quenched by the addition of 200 μL of ice-cold washing buffer and immediate filtration via glass fiber filters mounted on a 96-well plate (filter plate). The filters were washed (5 × 200 μL of ice-cold washing buffer), dried, and the amount of substrate inside the filtered vesicles was determined by liquid scintillation counting.

[1] = Stability in microsomes, rat; format: in vitro ADME; details: for average DEG [%]: rat microsomes, with cofactors
Protocol: The final incubation volume was 500 μL. Two control compounds (verapamil and donepezil) were included for each microsomal species, along with the appropriate vehicle control. The reactions were terminated by transferring 50 μL of incubate to 100 μL methanol containing an internal standard (metoprolol) at appropriate time points (0, 10, 20, 40, 60, and 120 min for the test compound and 0, 5, 10, 20, 40, and 60 min for the control compounds). The termination plates were centrifuged at 4000 x g at 4°C for 30 min to precipitate the protein. The supernatants were then collected for analysis, and LC-MS/MS was used for detection purposes. The system consisted of an Acquity™ Binary Solvent Manager, Acquity™ 4-position heated column manager, 2777 Ultra High Pressure Autosampler, and a Xevo-TQ MS triple quadrupole mass spectrometer (Waters Ltd., Herts, UK). This process was carried out twice.

HepG2 cells = assay: Respiration in hepatocytes (Seahorse XF Mito stress test); format: cell-based, human; details: Fig2 A
[2] = Rat (Sprague Dawley) microsomes, mean n = 2

Chain of MRP3 (O15438 whole entry, the tested form may be a part): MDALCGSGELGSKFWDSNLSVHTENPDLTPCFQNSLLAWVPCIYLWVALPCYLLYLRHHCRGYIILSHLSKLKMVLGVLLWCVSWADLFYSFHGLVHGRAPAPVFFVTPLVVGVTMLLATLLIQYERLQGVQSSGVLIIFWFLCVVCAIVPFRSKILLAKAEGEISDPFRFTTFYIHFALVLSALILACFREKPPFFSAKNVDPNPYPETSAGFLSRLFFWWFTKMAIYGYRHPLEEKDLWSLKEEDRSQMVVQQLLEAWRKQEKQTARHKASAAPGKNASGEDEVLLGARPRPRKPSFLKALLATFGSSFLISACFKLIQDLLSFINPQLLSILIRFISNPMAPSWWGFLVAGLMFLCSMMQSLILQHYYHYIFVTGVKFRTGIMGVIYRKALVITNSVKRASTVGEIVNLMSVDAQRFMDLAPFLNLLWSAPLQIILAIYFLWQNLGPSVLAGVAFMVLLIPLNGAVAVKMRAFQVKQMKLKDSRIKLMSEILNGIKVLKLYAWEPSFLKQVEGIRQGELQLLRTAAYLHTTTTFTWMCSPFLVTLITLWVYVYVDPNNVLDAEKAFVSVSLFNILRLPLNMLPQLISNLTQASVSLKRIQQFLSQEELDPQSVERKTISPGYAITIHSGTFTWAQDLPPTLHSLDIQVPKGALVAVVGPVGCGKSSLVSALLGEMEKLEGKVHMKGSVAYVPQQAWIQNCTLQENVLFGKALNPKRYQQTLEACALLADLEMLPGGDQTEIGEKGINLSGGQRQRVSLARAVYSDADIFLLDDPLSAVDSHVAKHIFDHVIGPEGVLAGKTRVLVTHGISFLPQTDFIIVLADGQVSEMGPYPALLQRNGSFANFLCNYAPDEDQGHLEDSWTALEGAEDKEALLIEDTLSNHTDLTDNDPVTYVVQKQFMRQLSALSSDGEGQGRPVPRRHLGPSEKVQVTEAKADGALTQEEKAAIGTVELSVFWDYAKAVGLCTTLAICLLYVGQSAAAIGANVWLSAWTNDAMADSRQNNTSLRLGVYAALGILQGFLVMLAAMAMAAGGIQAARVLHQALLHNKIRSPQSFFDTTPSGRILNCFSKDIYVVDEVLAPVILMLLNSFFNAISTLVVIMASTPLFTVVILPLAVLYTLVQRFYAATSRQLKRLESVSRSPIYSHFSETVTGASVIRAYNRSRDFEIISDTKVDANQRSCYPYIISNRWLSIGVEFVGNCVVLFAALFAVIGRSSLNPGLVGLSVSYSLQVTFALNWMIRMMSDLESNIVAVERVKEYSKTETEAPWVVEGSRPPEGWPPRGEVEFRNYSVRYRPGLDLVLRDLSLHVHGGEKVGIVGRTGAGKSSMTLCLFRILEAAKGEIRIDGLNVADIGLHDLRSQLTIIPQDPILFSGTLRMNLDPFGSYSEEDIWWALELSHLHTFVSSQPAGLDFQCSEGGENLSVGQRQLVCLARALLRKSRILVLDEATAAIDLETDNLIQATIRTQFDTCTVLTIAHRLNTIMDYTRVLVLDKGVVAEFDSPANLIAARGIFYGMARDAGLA

Compound: CC#C[C@@H](CC(=O)O)c1ccc(OCC(C)=C(C)C)cc1 [CPL207280]
- Accumulation (counts per minute; CPM) HEK293-NTCP (NTCP; conc 0.10 µM): 4707 CPM and 4966 CPM
- Accumulation (counts per minute; CPM) HEK293FT-MOCK (NTCP; conc 0.10 µM): 25 CPM
- Accumulation (counts per minute; CPM) HEK293-NTCP (NTCP; conc 1.00 µM): 4654 CPM and 4992 CPM
- Accumulation (counts per minute; CPM) HEK293FT-MOCK (NTCP; conc 1.00 µM): 29 CPM and 25 CPM
- Accumulation (counts per minute; CPM) HEK293-NTCP (NTCP; conc 3.00 µM): 4021 CPM and 4291 CPM
- Accumulation (counts per minute; CPM) HEK293FT-MOCK (NTCP; conc 3.00 µM): 19 CPM and 23 CPM
- Accumulation (counts per minute; CPM) HEK293-NTCP (NTCP; conc 10.00 µM): 3614 CPM and 3535 CPM
- Accumulation (counts per minute; CPM) HEK293FT-MOCK (NTCP; conc 10.00 µM): 24 CPM and 36 CPM
- Accumulation (counts per minute; CPM) HEK293-NTCP (NTCP; conc 30.00 µM): 2611 CPM and 3022 CPM
- Accumulation (counts per minute; CPM) HEK293FT-MOCK (NTCP; conc 30.00 µM): 21 CPM
- Accumulation (counts per minute; CPM) HEK293-NTCP (NTCP; conc 100.00 µM): 1462 CPM and 1666 CPM
- Accumulation (counts per minute; CPM) HEK293FT-MOCK (NTCP; conc 100.00 µM): 25 CPM and 27 CPM
- Accumulation (counts per minute; CPM) HEK293-NTCP (NTCP; conc 300.00 µM): 771 CPM and 846 CPM
- Accumulation (counts per minute; CPM) HEK293FT-MOCK (NTCP; conc 300.00 µM): 29 CPM and 23 CPM
- IC50 (NTCP; transformed HEK cells, up to 300μM, n = 2): 46.8 µM
- IC50 (OATP1B1): 17.9 µM
- fold less inhibitory potency than TAK-875, OATP1B1 (OATP1B1): at least 10 fold
- Accumulation (counts per minute; CPM) with AMP (MRP3; conc 0.10 µM): 240 CPM and 237 CPM
- Accumulation (counts per minute; CPM) with ATP (MRP3; conc 0.10 µM): 3273 CPM and 4152 CPM
- Accumulation (counts per minute; CPM) with AMP (MRP3; conc 1.00 µM): 221 CPM and 228 CPM
- Accumulation (counts per minute; CPM) with ATP (MRP3; conc 1.00 µM): 4818 CPM and 3968 CPM
- Accumulation (counts per minute; CPM) with AMP (MRP3; conc 3.00 µM): 249 CPM and 236 CPM
- Accumulation (counts per minute; CPM) with ATP (MRP3; conc 3.00 µM): 4175 CPM and 4726 CPM
- Accumulation (counts per minute; CPM) with AMP (MRP3; conc 10.00 µM): 274 CPM and 219 CPM
- Accumulation (counts per minute; CPM) with ATP (MRP3; conc 10.00 µM): 3924 CPM and 3961 CPM
- Accumulation (counts per minute; CPM) with AMP (MRP3; conc 30.00 µM): 231 CPM and 249 CPM
- Accumulation (counts per minute; CPM) with ATP (MRP3; conc 30.00 µM): 5849 CPM and 5611 CPM
- Accumulation (counts per minute; CPM) with AMP (MRP3; conc 100.00 µM): 250 CPM and 247 CPM
- Accumulation (counts per minute; CPM) with ATP (MRP3; conc 100.00 µM): 5885 CPM and 4953 CPM
- Accumulation (counts per minute; CPM) with AMP (MRP3; conc 300.00 µM): 206 CPM and 163 CPM
- Accumulation (counts per minute; CPM) with ATP (MRP3; conc 300.00 µM): 6861 CPM and 6621 CPM
- MRP3 Estimated IC50 (95% CI of IC50) (MRP3; vesicles, up to 300μM, n = 2): no affinity
- half-life at 3 μM [1, 2]: 1.15 h
- microsomal CLint at 3 μM [1, 2]: 21.1 µL/min/mg
- average DEG [%] ([1]; 0 min): 100.0%
- average DEG [%] ([1]; 20 min): 80.9%
- average DEG [%] ([1]; 40 min): 64.9%
- average DEG [%] ([1]; 60 min): 55.0%
- oxygen consumption rate, mito stress tracing (HepG2 cells; HepG2, 0.3 uM, 34.6705 min): 80.249 and 97.2155 and 86.8514
- oxygen consumption rate, mito stress tracing (HepG2 cells; HepG2, 0.3 uM, 41.3548 min): 35.437 and 46.6744 and 43.9128
- oxygen consumption rate, mito stress tracing (HepG2 cells; HepG2, 0.3 uM, 47.9665 min): 35.8498 and 44.0725 and 43.5554
- oxygen consumption rate, mito stress tracing (HepG2 cells; HepG2, 0.3 uM, 54.5812 min): 34.6812 and 46.6208 and 43.7024
- oxygen consumption rate, mito stress tracing (HepG2 cells; HepG2, 0.3 uM, 61.2916 min): 130.123 and 163.716 and 142.011
- oxygen consumption rate, mito stress tracing (HepG2 cells; HepG2, 0.3 uM, 67.9128 min): 106.485 and 133.91 and 115.698
- oxygen consumption rate, mito stress tracing (HepG2 cells; HepG2, 0.3 uM, 74.5347 min): 96.5173
- oxygen consumption rate, mito stress tracing (HepG2 cells; HepG2, 1 uM, 34.6705 min): 100.011 and 78.8082 and 81.9508
